The test system of one assay is A549. Kind of assay: Cytotoxicity against human A549 cells assessed as inhibition of proliferation by SRB method. Format: functional, cell-based.
Assay [1] in a line: Cytotoxicity against human HL-7702 cells assessed as inhibition of proliferation by SRB method. The following applies: L02. Format: functional, cell-based.
The next assay has as its system MRC5. Kind of assay: Cytotoxicity against human MRC5 cells assessed as inhibition of proliferation by SRB method. Type of assay: cell-based.
Assay [2] is described as follows: Cytotoxicity against human 95-D cells assessed as inhibition of proliferation by SRB method. Type of assay: functional, cell-based.

In the case of `CC1=C(C)[C@H]2[C@H](Cc3ccccc3)NC(=O)[C@]23[C@H](O)/C=C/[C@H](C)C(=O)[C@@H](C)C/C=C/[C@H]3C1=O`, the 50% inhibitory concentration (IC50) in the assay on A549 was 32.3 µM; in assay [1], 29.8 µM; in the assay on MRC5 it was greater than 200 µM; in assay [2], 23.7 µM.

Consider `CC1=C(C)[C@H]2[C@H](Cc3ccccc3)NC(=O)[C@]23[C@H](O)/C=C/[C@H](C)C(=O)[C@@H](C)C/C=C/[C@H]3[C@@H]1O`, for which the IC50 in the assay with A549 is 17.1 µM; in assay [1], 35.7 µM; with MRC5, greater than 200 µM; in assay [2], 26 µM.

As to `CC1=C[C@@H]2/C=C/C[C@H](C)C(=O)[C@](C)(O)/C=C/[C@@H](O)[C@]23C(=O)N[C@@H](Cc2ccccc2)[C@@H]3[C@H]1C`, the IC50 with A549 is 19.9 µM; in assay [1] it was 30.9 µM; with MRC5 it was greater than 200 µM; in assay [2], 20.7 µM.

As to `CC1=C(C)[C@H]2[C@H](Cc3ccccc3)NC(=O)[C@]23[C@H](O)/C=C/[C@@](C)(O)C(=O)[C@@H](C)C/C=C/[C@H]3[C@@H]1O` [DEACETYLCYTOCHALASIN C], the IC50 in the assay on A549 is 13.6 µM; in assay [1], 31.1 µM; in the assay on MRC5 it was greater than 200 µM; in assay [2], 3.67 µM.

Turning to `C=C1[C@@H](C)[C@H]2[C@H](Cc3ccccc3)NC(=O)[C@]23[C@H](O)/C=C/[C@@](C)(O)C(=O)[C@@H](C)C/C=C/[C@H]3[C@@H]1O` [ZYGOSPORIN D], the IC50 with A549 is 16.7 µM; in assay [1], 30.2 µM; in the assay on MRC5, greater than 200 µM; in assay [2], 4.04 µM.

Source of the values: ChEMBL document CHEMBL3400085, “New cytochalasins from medicinal macrofungus Crodyceps taii and their inhibitory activities against human cancer cells” (Bioorg Med Chem Lett, 2015).
